We go through 21 molecules from patent US8574563B2 (Bristol-Myers Squibb Company, priority 2006, dated 2013).

The structures appear in SMILES notation. Where two headings read alike, the source gives them in different places.

The test system of this assay is HCV 1b-377-neo replicon cells. Nature of the assay: HCV replicon assay, HCV 1b-377-neo replicon cells (1b FRET). It counts as cell-based, Hepatitis C virus genotype 1b. The conditions noted are these: HCV 1b-377-neo replicon cells, HCV 1b genotype, read-out: EC50 range against HCV 1b (Table 2, Range). The gist of the method: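 FRET-based replicon assay in HCV 1b-377-neo cells, including a comparison line carrying the NS5A Y2065H mutation that confers resistance to a reference compound.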
For orientation: A replicon is a self-replicating genome or part of one, used to study replication in cells.

In general, EC50 refers to the midpoint of the concentration-response curve. For `O=C(Cc1cccnc1)N[C@@H](C(=O)N1CCC[C@H]1c1ncc(-c2ccc(-c3ccc(-c4c[nH]c([C@@H]5CCCN5C(=O)[C@H]5CCCO5)n4)cc3)cc2)[nH]1)c1ccccc1` [Example 120-7, N-((1R)-2-oxo-1-phenyl-2-((2S)-2-(5-(4′-(2-((2S)-1-((2R)-tetrahydro-2-furanylcarbonyl)-2-pyrrolidinyl)-1H-imidazol-4-yl)-4-biphenylyl)-1H-imidazol-2-yl)-1-pyrrolidinyl)ethyl)-2-(3-pyridinyl)acetamide], the EC50 (Hepatitis C virus) lay in the range of 0.001 to 0.999 nM. Regarding `CN(C)CC(=O)N[C@@H](C(=O)N1CCC[C@H]1c1ncc(-c2ccc(-c3ccc(-c4c[nH]c([C@@H]5CCCN5C(=O)[C@H]5CCCO5)n4)cc3)cc2)[nH]1)c1ccccc1` [Example 120-8, N^2,N^2-dimethyl-N-((1R)-2-oxo-1-phenyl-2-((2S)-2-(5-(4′-(2-((2S)-1-((2R)-tetrahydro-2-furanylcarbonyl)-2-pyrrolidinyl)-1H-imidazol-4-yl)-4-biphenylyl)-1H-imidazol-2-yl)-1-pyrrolidinyl)ethyl) glycinamide], the EC50 was 1 to 99 nM. Turning to `O=C(Nc1cccnc1)N[C@@H](C(=O)N1CCC[C@H]1c1ncc(-c2ccc(-c3ccc(-c4c[nH]c([C@@H]5CCCN5C(=O)[C@H]5CCCO5)n4)cc3)cc2)[nH]1)c1ccccc1` [Example 120-9, 1-((1R)-2-oxo-1-phenyl-2-((2S)-2-(5-(4′-(2-((2S)-1-((2R)-tetrahydro-2-furanylcarbonyl)-2-pyrrolidinyl)-1H-imidazol-4-yl)-4-biphenylyl)-1H-imidazol-2-yl)-1-pyrrolidinyl)ethyl)-3-(3-pyridinyl)urea], the EC50 (Hepatitis C virus) was in the range of 0.001 to 0.999 nM.

Turning to `Cc1cc(-c2cnc([C@@H]3CCCN3C(=O)[C@@H](c3ccccc3)N(C)C)[nH]2)ccc1-c1ccc(-c2cnc([C@@H]3CCCN3C(=O)[C@@H](c3ccccc3)N(C)C)[nH]2)cc1C` [Example 121], the EC50 (Hepatitis C virus) lay within 0.001 to 0.999 nM.

Take `COC(=O)N[C@@H](C(=O)N1CCC[C@H]1c1ncc(-c2ccc(-c3ccc(-c4cnc([C@@H]5CCCN5C(=O)[C@H](NC(=O)OC)c5ccccc5)[nH]4)cc3C)c(C)c2)[nH]1)c1ccccc1` [Example 122]: under “Hepatitis C virus”, the EC50 fell in the range of 0.001 to 0.999 nM. Turning to `Cc1cc(-c2cnc([C@@H]3CCCN3C(=O)[C@@H](c3ccccc3)N(C)C)[nH]2)ccc1-c1ccc(-c2cnc([C@@H]3CCCN3C(=O)[C@@H](c3ccccc3)N(C)C)[nH]2)cc1` [Example 123, (1R,1′R)-2,2′-((2-methyl-4,4′-biphenyldiyl)bis(1H-imidazole-5,2-diyl(2S)-2,1-pyrrolidinediyl))bis(N,N-dimethyl-2-oxo-1-phenylethanamine)], the EC50 (Hepatitis C virus) fell in the range of 0.001 to 0.999 nM.

As to `COC(=O)N[C@@H](C(=O)N1CCC[C@H]1c1ncc(-c2ccc(-c3ccc(-c4cnc([C@@H]5CCCN5C(=O)[C@H](NC(=O)OC)c5ccccc5)[nH]4)cc3C)cc2)[nH]1)c1ccccc1` [Example 124, dimethyl ((2-methyl-4,4′-biphenyldiyl)bis(1H-imidazole-5,2-diyl(2S)-2,1-pyrrolidinediyl((1R)-2-oxo-1-phenyl-2,1-ethanediyl)))biscarbamate], the EC50 (Hepatitis C virus) is 0.001 to 0.999 nM. The same measure, in the same setting: for `Cc1cc(-c2cnc([C@@H]3CCCN3C(=O)[C@H](O)c3ccccc3)[nH]2)ccc1-c1ccc(-c2cnc([C@@H]3CCCN3C(=O)[C@H](O)c3ccccc3)[nH]2)cc1` [Example 125, (1R,1′R)-2,2′-((2-methyl-4,4′-biphenyldiyl)bis(1H-imidazole-5,2-diyl(2S)-2,1-pyrrolidinediyl))bis(2-oxo-1-phenylethanol)] the value was 0.001 to 0.999 nM; for `COC(=O)N[C@@H](C(=O)N1CCC[C@H]1c1ncc(-c2ccc(-c3ccc(-c4cnc([C@@H]5CCCN5C(=O)[C@@H](c5ccccc5)N(C)C)[nH]4)cc3C)cc2)[nH]1)c1ccccc1` [Example 126, methyl ((1R)-2-((2S)-2-(5-(4′-(2-((2S)-1-((2R)-2-(dimethylamino)-2-phenylacetyl)-2-pyrrolidinyl)-1H-imidazol-5-yl)-2′-methyl-4-biphenylyl)-1H-imidazol-2-yl)-1-pyrrolidinyl)-2-oxo-1-phenylethyl)carbamate], 0.001 to 0.999 nM; for `COC(=O)N[C@@H](C(=O)N1CCC[C@H]1c1ncc(-c2ccc(-c3ccc(-c4cnc([C@@H]5CCCN5C(=O)Cc5cccnc5)[nH]4)cc3C)cc2)[nH]1)c1ccccc1` [Example 127, methyl ((1R)-2-((2S)-2-(5-(2′-methyl-4′-(2-((2S)-1-(3-pyridinylacetyl)-2-pyrrolidinyl)-1H-imidazol-5-yl)-4-biphenylyl)-1H-imidazol-2-yl)-1-pyrrolidinyl)-2-oxo-1-phenylethyl)carbamate], 0.001 to 0.999 nM.

For the molecule `COC(=O)N[C@@H](C(=O)N1CCC[C@H]1c1ncc(-c2ccc(-c3ccc(-c4cnc([C@@H]5CCCN5C(=O)[C@@H]5CCCO5)[nH]4)cc3C)cc2)[nH]1)c1ccccc1` [Example 128, methyl ((1R)-2-((2S)-2-(5-(2′-methyl-4′-(2-((2S)-1-((2S)-tetrahydro-2-furanylcarbonyl)-2-pyrrolidinyl)-1H-imidazol-5-yl)-4-biphenylyl)-1H-imidazol-2-yl)-1-pyrrolidinyl)-2-oxo-1-phenylethyl)carbamate], the EC50 (Hepatitis C virus) fell in the range of 0.001 to 0.999 nM. `COC(=O)N[C@@H](C(=O)N1CCC[C@H]1c1ncc(-c2ccc(-c3ccc(-c4cnc([C@@H]5CCCN5C(=O)[C@@H](c5ccccc5)N(C)C)[nH]4)cc3C)c(C)c2)[nH]1)c1ccccc1` [Example 129, methyl ((1R)-2-((2S)-2-(5-(4′-(2-((2S)-1-((2R)-2-(dimethylamino)-2-phenylacetyl)-2-pyrrolidinyl)-1H-imidazol-5-yl)-2,2′-dimethyl-4-biphenylyl)-1H-imidazol-2-yl)-1-pyrrolidinyl)-2-oxo-1-phenylethyl)carbamate]: the EC50 (Hepatitis C virus) is 0.001 to 0.999 nM.

Take `CN(C)[C@@H](C(=O)N1CCC[C@H]1c1ncc(-c2ccc(-c3ccc(-c4cnc([C@@H]5CCCN5C(=O)[C@@H](c5ccccc5)N(C)C)[nH]4)cc3C(F)(F)F)cc2)[nH]1)c1ccccc1` [Example 130]: the EC50 (Hepatitis C virus) is 0.001 to 0.999 nM. Same read-out and setting: for `COC(=O)N[C@@H](C(=O)N(C)[C@@H](C)c1ncc(-c2ccc(-c3ccc(-c4cnc([C@@H]5CCCN5C(=O)[C@@H](c5ccccc5)N(C)C)[nH]4)cc3)cc2)[nH]1)c1ccccc1` [Example 131.1-1, methyl ((1R)-2-(((1S)-1-(5-(4′-(2-((2S)-1-((2R)-2-(dimethylamino)-2-phenylacetyl)-2-pyrrolidinyl)-1H-imidazol-5-yl)-4-biphenylyl)-1H-imidazol-2-yl)ethyl)(methyl)amino)-2-oxo-1-phenylethyl)carbamate] the value was 0.001 to 0.999 nM; for `COC(=O)N[C@@H](C(=O)N(C)[C@@H](C)c1ncc(-c2ccc(-c3ccc(-c4cnc([C@@H]5CCCN5C(=O)[C@@H](c5ccccc5)N5CCCCC5)[nH]4)cc3)cc2)[nH]1)c1ccccc1` [Example 131.1-2, methyl ((1R)-2-(methyl((1S)-1-(5-(4′-(2-((2S)-1-((2R)-2-phenyl-2-(1-piperidinyl)acetyl)-2-pyrrolidinyl)-1H-imidazol-5-yl)-4-biphenylyl)-1H-imidazol-2-yl)ethyl)amino)-2-oxo-1-phenylethyl)carbamate], 0.001 to 0.999 nM. For `O=C([C@@H](c1ccccc1)N1CCCC1)N1CCC[C@H]1c1ncc(-c2ccc(-c3ccc(-c4cnc([C@@H]5CCCN5C(=O)[C@@H](c5ccccc5)N5CCCC5)[nH]4)cc3C(F)(F)F)cc2)[nH]1` [Example 131], the half-maximal effective concentration (EC50) (Hepatitis C virus) was in the range of 0.001 to 0.999 nM.

Turning to `CN(C)[C@@H](C(=O)N1CCC[C@H]1c1ncc(-c2ccc(-c3ccc(-c4cnc([C@@H]5CCCN5C(=O)[C@@H](c5ccccc5)N(C)C)[nH]4)cn3)cc2)[nH]1)c1ccccc1` [Example 132, (1R)-2-((2S)-2-(5-(6-(4-(2-((2S)-1-((2R)-2-(dimethylamino)-2-phenylacetyl)-2-pyrrolidinyl)-1H-imidazol-5-yl)phenyl)-3-pyridinyl)-1H-imidazol-2-yl)-1-pyrrolidinyl)-N,N-dimethyl-2-oxo-1-phenylethanamine], the EC50 (Hepatitis C virus) was in the range of 0.001 to 0.999 nM. The same measure, in the same setting: the same measure for `O=C([C@H](O)c1ccccc1)N1CCC[C@H]1c1ncc(-c2ccc(-c3ccc(-c4cnc([C@@H]5CCCN5C(=O)[C@H](O)c5ccccc5)[nH]4)cn3)cc2)[nH]1` [Example 133, (1R)-2-((2S)-2-(5-(6-(4-(2-((2S)-1-((2R)-2-hydroxy-2-phenylacetyl)-2-pyrrolidinyl)-1H-imidazol-5-yl)phenyl)-3-pyridinyl)-1H-imidazol-2-yl)-1-pyrrolidinyl)-2-oxo-1-phenylethanol]: 1 to 99 nM; for `COC(=O)N[C@@H](C(=O)N1CCC[C@H]1c1ncc(-c2ccc(-c3ccc(-c4cnc([C@@H]5CCCN5C(=O)[C@H](NC(=O)OC)c5ccccc5)[nH]4)cn3)cc2)[nH]1)c1ccccc1` [Example 134, methyl ((1R)-2-((2S)-2-(5-(6-(4-(2-((2S)-1-((2R)-2-((methoxycarbonyl)amino)-2-phenylacetyl)-2-pyrrolidinyl)-1H-imidazol-5-yl)phenyl)-3-pyridinyl)-1H-imidazol-2-yl)-1-pyrrolidinyl)-2-oxo-1-phenylethyl)carbamate]: 0.001 to 0.999 nM; for `CO[C@@H](C(=O)N1CCC[C@H]1c1ncc(-c2ccc(-c3ccc(-c4cnc([C@@H]5CCCN5C(=O)[C@H](OC)c5ccccc5)[nH]4)cn3)cc2)[nH]1)c1ccccc1` [Example 135, 5-(2-((2S)-1-((2R)-2-methoxy-2-phenylacetyl)-2-pyrrolidinyl)-1H-imidazol-5-yl)-2-(4-(2-((2S)-1-((2R)-2-methoxy-2-phenylacetyl)-2-pyrrolidinyl)-1H-imidazol-5-yl)phenyl)pyridine]: 0.001 to 0.999 nM. In the case of `Cc1cc(-c2cnc([C@@H]3CCCN3C(=O)[C@@H](c3ccccc3)N(C)C)[nH]2)ccc1-c1ccc(-c2cnc([C@@H]3CCCN3C(=O)[C@@H](c3ccccc3)N(C)C)[nH]2)cn1` [Example 136, (1R)-2-((2S)-2-(5-(6-(4-(2-((2S)-1-((2R)-2-(dimethylamino)-2-phenylacetyl)-2-pyrrolidinyl)-1H-imidazol-5-yl)-2-methylphenyl)-3-pyridinyl)-1H-imidazol-2-yl)-1-pyrrolidinyl)-N,N-dimethyl-2-oxo-1-phenylethanamine], under “Hepatitis C virus”, the EC50 fell in the range of 0.001 to 0.999 nM.
